The target of one assay is T1, FGFR1 (Homo sapiens, UniProt P11362).
T1 construct: endogenous in cells
As to the kind of experiment: Kinobeads competition binding: FGFR1. As to conditions: target FGFR1. The text has this:
Supplement 41589_2023_1459_MOESM4_ESM.xlsx, sheet "CATDS matrix" | column: FGFR1

The next assay addresses T2, CAMK2D (Homo sapiens, UniProt Q13557).
T2 construct: endogenous in cells
Nature of the assay: Kinobeads competition binding: CAMK2D.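 Note: selectivity score: engagement of this protein divided by summed engagement of all targets.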 As to conditions: target CAMK2D. The text has this: Supplement 41589_2023_1459_MOESM4_ESM.xlsx, sheet "CATDS matrix" | column: CAMK2D

The subject of a further assay is EIF2AK1. As to the kind of experiment: Kinobeads competition binding: EIF2AK1.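 Note: share of total target engagement due to this protein at one drug concentration.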 More on the design: species or system human. Conditions: target EIF2AK1.
The target in a further assay is T3, AURKA (Homo sapiens, UniProt O14965).
T3 construct: endogenous in cells
T3 sequence (O14965 1-403): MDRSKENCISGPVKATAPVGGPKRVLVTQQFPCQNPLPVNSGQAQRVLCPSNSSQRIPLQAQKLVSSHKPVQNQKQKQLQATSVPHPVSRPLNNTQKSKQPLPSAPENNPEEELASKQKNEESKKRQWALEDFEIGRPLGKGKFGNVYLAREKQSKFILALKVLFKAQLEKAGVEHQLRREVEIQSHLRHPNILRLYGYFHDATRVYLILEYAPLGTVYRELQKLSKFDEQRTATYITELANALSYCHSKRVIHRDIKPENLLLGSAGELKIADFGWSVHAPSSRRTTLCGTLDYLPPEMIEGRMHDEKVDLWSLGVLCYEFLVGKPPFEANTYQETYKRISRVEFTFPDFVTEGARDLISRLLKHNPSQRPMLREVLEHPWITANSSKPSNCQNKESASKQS
As to the kind of experiment: Kinobeads competition binding: AURKA.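 Note: selectivity score: engagement of this protein divided by summed engagement of all targets.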 Conditions: target AURKA. The text has this: Supplement 41589_2023_1459_MOESM4_ESM.xlsx, sheet "CATDS matrix" | column: AURKA

Another assay deals with JAK2. As to the kind of experiment: Kinobeads competition binding: JAK2.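 Note: target engagement share of this target among all targets at its Kdapp concentration.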 Further details: species or system human. As to conditions: target JAK2.
A further assay concerns the target T4, MET (Homo sapiens, UniProt P08581).
T4 construct: endogenous in cells
Nature of the assay: Kinobeads two-dose competition binding: MET. As to conditions: target MET.

The target of a further assay is T5, BCR (Homo sapiens, UniProt P00519+P11274).
T5 construct: endogenous in cells
As to the kind of experiment: Kinobeads competition binding: BCR. Conditions: target BCR. The text has this:
Supplement 41589_2023_1459_MOESM4_ESM.xlsx, sheet "CATDS matrix" | column: BCR

The next assay deals with ILK. As to the kind of experiment: Kinobeads competition binding: ILK. Further details: species or system human. Conditions: target ILK.
The test system of a further assay is FLT3. Nature of the assay: Kinobeads two-dose competition binding: FLT3. More on the design: species or system human. Conditions: for CATDS: target FLT3.
A further assay has as its target T6, CLK4 (Homo sapiens, UniProt Q9HAZ1).
T6 construct: to maximize the representation of endogenous proteins; endogenous in cells
As to the kind of experiment: Kinobeads two-dose competition binding: CLK4.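 For CATDS: target engagement share of this target among all targets at its Kdapp concentration.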 Conditions: for CATDS: target CLK4.

The target of the next assay is T7, FRK (Homo sapiens, UniProt P42685).
T7 construct: endogenous in cells
Nature of the assay: Kinobeads competition binding: FRK. As to conditions: target FRK. The text has this: Supplement 41589_2023_1459_MOESM4_ESM.xlsx, sheet "CATDS matrix" | column: FRK

For a further assay, the target named is T8, PAK6 (Homo sapiens, UniProt Q9NQU5).
T8 construct: a mixture of lysates from five cancer cell lines; endogenous in cells
As to the kind of experiment: Kinobeads competition binding: PAK6. As to conditions: target PAK6.

In another assay the test system is PGK1. As to the kind of experiment: Kinobeads competition binding: PGK1. Further details: species or system human. As to conditions: target PGK1.
Another assay addresses T9, EGFR (Homo sapiens, UniProt P00533).
T9 construct: endogenous in cells
Nature of the assay: Kinobeads two-dose competition binding: EGFR. As to conditions: for CATDS: target EGFR.

In the next assay the target is PKN3 (Homo sapiens, UniProt Q6P5Z2). As to the kind of experiment: NanoBRET in-cell target engagement in HEK293T cells: PKN3.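 Note: Full-length PKN3 with C-terminal NanoLuc expressed in HEK293T cells, serial inhibitor dilutions competing against Kinase Tracer K5 at 500 nM, BRET read after 2 h at 37 °C.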 The class given is cell-based. Further details: full-length PKN3, CSNK2A1 or CSNK2A2 ORF; host or cells: HEK293T. For orientation: Bioluminescence resonance energy transfer reports proximity on the nanometre scale.
Where [1] appears, read: HEK293T cells, in-cell target engagement, read-out: IC50 PKN3 NanoBRET.
[2] abbreviates: average of replicates, read-out: Average of IC50 values NanoBRET PKN3.
Where [3] appears, read: biological replicate number 1, read-out: Rep 1 IC50 NanoBRET PKN3.
Where [4] appears, read: biological replicate number 2, read-out: Rep 2 IC50 NanoBRET PKN3.
[5] abbreviates: biological replicate number 3, read-out: Rep 3 IC50 NanoBRET PKN3.
Where [6] appears, read: biological replicate number 4, read-out: Rep 4 IC50 NanoBRET PKN3.

Where two headings read alike, the source gives them in different places. Where only a bound is given, the exact number is not on record here.

We go through 11 compounds from publication PMC11062922 (Nature Chemical Biology, 2023).

Broadly, the IC50 is the concentration needed to halve the response being measured.

T4 sequence (P08581 25-1390): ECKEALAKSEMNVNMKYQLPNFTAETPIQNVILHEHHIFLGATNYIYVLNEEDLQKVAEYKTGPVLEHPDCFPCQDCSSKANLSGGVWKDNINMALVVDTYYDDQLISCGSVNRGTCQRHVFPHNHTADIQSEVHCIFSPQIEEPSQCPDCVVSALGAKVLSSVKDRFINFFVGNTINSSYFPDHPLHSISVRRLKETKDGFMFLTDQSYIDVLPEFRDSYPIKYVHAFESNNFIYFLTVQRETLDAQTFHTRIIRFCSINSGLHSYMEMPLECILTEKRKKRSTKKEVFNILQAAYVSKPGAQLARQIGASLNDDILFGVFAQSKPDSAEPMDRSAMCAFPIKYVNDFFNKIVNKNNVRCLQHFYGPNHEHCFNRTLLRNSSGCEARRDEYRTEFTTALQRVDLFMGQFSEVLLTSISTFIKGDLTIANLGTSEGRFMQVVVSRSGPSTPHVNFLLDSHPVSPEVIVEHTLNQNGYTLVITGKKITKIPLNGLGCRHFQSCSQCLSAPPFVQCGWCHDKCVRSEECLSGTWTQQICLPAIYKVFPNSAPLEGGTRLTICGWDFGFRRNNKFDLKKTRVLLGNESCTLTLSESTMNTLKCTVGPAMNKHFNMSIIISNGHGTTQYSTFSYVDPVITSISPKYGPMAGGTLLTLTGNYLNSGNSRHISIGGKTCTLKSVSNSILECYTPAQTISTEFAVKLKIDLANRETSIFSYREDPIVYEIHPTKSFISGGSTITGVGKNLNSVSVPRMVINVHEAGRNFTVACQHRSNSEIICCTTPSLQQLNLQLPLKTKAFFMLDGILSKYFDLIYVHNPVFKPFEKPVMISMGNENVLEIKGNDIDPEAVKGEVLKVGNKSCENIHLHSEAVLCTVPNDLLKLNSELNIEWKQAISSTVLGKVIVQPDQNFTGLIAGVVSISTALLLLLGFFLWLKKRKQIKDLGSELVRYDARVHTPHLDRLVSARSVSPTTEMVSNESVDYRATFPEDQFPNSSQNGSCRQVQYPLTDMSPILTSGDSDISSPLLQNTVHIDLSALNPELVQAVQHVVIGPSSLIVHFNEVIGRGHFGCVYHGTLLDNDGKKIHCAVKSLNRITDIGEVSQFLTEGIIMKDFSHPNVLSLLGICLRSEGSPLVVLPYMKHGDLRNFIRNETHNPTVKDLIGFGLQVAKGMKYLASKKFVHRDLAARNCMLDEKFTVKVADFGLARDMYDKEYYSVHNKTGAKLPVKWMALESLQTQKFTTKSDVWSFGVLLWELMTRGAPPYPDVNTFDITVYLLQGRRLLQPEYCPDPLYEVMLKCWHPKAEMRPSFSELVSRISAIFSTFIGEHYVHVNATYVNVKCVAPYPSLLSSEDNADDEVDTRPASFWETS
T5 sequence (P11274+P00519 fused): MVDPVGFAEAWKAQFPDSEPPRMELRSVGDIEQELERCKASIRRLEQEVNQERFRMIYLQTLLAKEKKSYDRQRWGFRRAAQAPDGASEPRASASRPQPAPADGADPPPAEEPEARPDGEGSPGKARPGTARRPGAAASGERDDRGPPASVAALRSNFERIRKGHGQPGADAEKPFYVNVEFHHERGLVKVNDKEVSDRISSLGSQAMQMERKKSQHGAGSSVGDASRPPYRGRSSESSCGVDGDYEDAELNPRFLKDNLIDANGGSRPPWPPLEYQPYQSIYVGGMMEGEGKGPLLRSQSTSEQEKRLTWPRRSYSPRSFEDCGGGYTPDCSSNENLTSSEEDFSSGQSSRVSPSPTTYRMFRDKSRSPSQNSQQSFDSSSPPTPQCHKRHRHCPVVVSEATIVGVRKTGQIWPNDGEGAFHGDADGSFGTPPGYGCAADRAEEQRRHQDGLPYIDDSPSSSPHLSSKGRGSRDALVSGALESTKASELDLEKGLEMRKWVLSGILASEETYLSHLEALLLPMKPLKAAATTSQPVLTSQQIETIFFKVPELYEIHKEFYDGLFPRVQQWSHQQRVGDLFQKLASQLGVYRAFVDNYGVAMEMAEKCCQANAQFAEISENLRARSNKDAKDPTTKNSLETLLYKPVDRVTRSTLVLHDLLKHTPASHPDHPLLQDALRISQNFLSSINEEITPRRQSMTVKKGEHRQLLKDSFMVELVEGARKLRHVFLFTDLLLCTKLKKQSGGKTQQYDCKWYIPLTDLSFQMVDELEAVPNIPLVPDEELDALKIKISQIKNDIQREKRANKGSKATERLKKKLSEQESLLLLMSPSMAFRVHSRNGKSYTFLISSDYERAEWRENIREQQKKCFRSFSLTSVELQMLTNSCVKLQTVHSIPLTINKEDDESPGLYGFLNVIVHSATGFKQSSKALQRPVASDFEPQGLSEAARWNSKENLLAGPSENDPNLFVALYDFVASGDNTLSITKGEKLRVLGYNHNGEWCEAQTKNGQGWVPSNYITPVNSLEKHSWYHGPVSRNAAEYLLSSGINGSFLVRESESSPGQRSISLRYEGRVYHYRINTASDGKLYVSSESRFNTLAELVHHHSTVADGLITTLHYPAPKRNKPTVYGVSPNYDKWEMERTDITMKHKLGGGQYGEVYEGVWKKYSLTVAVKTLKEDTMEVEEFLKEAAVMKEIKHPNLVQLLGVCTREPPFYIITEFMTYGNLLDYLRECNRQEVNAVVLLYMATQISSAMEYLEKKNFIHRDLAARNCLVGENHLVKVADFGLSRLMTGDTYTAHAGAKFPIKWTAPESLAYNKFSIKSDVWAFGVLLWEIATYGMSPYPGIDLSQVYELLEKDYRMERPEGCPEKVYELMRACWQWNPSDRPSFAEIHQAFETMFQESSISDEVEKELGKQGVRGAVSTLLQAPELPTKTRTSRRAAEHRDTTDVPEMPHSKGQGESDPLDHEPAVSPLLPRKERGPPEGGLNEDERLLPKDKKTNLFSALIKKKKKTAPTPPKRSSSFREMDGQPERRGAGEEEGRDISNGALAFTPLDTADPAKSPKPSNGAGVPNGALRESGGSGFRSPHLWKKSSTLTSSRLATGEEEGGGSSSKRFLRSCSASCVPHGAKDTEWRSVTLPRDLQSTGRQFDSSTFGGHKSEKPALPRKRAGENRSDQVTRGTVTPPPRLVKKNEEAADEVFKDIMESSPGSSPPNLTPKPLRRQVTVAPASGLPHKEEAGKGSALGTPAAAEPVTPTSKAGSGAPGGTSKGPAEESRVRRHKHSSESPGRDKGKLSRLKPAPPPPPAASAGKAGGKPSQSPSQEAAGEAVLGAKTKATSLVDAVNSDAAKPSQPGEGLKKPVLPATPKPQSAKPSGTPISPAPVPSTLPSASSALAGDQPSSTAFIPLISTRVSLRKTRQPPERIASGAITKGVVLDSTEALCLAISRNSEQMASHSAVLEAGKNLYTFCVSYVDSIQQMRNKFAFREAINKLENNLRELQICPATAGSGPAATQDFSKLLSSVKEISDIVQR
T9 sequence (P00533 25-1210): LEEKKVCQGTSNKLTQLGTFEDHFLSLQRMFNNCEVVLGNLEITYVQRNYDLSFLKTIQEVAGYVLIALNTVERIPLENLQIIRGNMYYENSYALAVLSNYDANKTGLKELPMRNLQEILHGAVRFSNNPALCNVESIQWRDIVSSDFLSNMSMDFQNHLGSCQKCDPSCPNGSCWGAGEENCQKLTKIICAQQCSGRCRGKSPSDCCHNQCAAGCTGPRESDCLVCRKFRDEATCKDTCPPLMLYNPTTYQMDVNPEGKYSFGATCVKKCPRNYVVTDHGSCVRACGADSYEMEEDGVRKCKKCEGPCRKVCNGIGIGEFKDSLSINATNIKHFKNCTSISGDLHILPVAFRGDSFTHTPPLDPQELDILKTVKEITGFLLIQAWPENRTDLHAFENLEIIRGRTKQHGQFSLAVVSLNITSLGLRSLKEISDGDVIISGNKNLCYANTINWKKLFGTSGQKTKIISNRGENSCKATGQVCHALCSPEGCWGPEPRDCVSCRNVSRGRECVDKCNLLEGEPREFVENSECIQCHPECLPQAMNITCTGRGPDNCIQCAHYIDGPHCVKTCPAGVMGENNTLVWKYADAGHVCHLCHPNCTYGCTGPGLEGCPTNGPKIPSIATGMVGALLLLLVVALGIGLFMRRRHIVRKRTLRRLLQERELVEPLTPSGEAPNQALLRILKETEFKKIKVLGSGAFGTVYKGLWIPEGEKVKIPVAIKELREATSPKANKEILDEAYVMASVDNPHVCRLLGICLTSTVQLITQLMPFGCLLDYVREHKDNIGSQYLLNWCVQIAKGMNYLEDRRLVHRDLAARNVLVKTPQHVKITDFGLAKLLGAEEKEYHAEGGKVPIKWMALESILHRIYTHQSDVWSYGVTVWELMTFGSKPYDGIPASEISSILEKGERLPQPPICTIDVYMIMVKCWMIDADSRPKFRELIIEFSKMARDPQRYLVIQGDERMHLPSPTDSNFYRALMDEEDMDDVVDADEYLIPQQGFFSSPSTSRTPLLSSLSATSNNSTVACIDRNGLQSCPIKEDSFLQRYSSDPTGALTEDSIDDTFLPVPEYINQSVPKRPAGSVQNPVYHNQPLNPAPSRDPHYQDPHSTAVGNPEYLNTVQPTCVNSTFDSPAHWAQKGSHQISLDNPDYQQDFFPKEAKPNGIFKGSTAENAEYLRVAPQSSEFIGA
T6 sequence (Q9HAZ1 whole entry): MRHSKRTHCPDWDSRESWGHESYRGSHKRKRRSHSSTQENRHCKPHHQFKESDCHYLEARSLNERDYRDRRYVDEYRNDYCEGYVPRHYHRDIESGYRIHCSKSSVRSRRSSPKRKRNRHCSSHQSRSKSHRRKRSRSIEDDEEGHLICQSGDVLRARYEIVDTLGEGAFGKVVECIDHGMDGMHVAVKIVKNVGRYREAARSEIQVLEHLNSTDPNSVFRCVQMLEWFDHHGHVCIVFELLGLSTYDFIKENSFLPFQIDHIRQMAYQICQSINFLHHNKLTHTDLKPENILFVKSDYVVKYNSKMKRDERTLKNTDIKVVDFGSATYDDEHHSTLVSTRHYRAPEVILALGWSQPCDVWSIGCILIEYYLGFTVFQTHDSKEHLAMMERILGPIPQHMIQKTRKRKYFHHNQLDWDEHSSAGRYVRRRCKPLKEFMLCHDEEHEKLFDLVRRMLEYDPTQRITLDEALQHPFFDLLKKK

In the case of `Nc1ncnc2[nH]c(-c3ccccc3)nc12` [AH5015_KCGS], the CATDS on FGFR1, on CAMK2D, in the assay on EIF2AK1, on AURKA, with JAK2 and at MET was 0 each time. For the same compound, the CATDS came out at 0.0268 at BCR; 0 in the assay on ILK; 0 with FLT3; 0 at CLK4; 0 at FRK; 0 on PAK6. In addition, the CATDS in the assay with PGK1 and at EGFR was 0 each time. Also, on CLK4 (Kinobeads two-dose, Drugmatrix - all 2, read-out: apparent Kd CLK4), the potency estimated from few doses is above 1000 nM.

As to `CCN1CCN(Cc2ccc(Nc3ncc(F)c(-c4cc(F)c5nc(C)n(C(C)C)c5c4)n3)nc2)CC1` [Abemaciclib], the CATDS on FGFR1 was 0; at CAMK2D, 0.08654; with EIF2AK1 it was 0; on AURKA, 0; with JAK2 it was 0; on MET, 0. Also, the CATDS on BCR, with ILK, with FLT3, at FRK, on PAK6 and in the assay with PGK1 was 0 each time. The compound also came in with a CATDS at EGFR of 0.

Turning to `CN(C)C/C=C/C(=O)Nc1cc2c(Nc3ccc(F)c(Cl)c3)ncnc2cc1O[C@H]1CCOC1` [Afatinib], the CATDS on FGFR1, at CAMK2D, on AURKA, on MET, at BCR and at CLK4 was 0 in each case. Besides, the CATDS on FRK and in the assay with PGK1 was 0 throughout.

For the compound `CCc1cc2c(cc1N1CCC(N3CCOCC3)CC1)C(C)(C)c1[nH]c3cc(C#N)ccc3c1C2=O` [Alectinib], the CATDS at FGFR1, at CAMK2D, in the assay with EIF2AK1, on AURKA, in the assay on JAK2 and at MET was 0 throughout. In addition, the CATDS on BCR, in the assay on ILK, in the assay on FLT3, on CLK4, at FRK and at PAK6 was 0 throughout. Moreover, the CATDS in the assay on PGK1 and on EGFR was 0 each time.

Take `N#CC1(c2ccc(NC(=O)c3cccnc3NCc3ccncc3)cc2)CCCC1` [Apatinib]: the CATDS at FGFR1, on CAMK2D, with EIF2AK1, at AURKA, with JAK2 and on MET was 0 each time. In addition, the CATDS at BCR, in the assay on ILK, in the assay with FLT3, on CLK4, at FRK and at PAK6 was 0 in each case. Besides, the CATDS in the assay on PGK1 and on EGFR was 0 each time.

Regarding `C#Cc1cccc(Nc2ncnc3cc(OC)c(OC4CCN(C)CC4)cc23)c1` [BI00007366], the potency estimated from few doses on EGFR (Kinobeads two-dose, Drugmatrix - all 2, read-out: apparent Kd EGFR) is above 1000 nM.

On to `CCn1c(-c2nonc2N)nc2c(C#CC(C)(C)O)nc(OCCN)cc21` [GSK902056A], for which the IC50 on PKN3 (setting [1]) turned out to be 79 nM; on PKN3 (setting [2]) it was 99.2 nM; on PKN3 (setting [3]) it was 234 nM; at PKN3 (setting [4]), 56.5 nM; on PKN3 (setting [5]), 27 nM; at PKN3 (setting [6]), 79.2 nM.

As to `CCn1c(-c2nonc2N)nc2c(C#CC(C)(C)O)nc(OCCNC)cc21` [GSK949675A], the IC50 came out at 136 nM on PKN3 (setting [1]); 669 nM at PKN3 (setting [2]); 1950 nM on PKN3 (setting [3]); 441 nM at PKN3 (setting [4]); 149 nM on PKN3 (setting [5]).

For `COc1cc(Nc2ncc3c(C)nc(-c4cc5ccccc5[nH]4)n3n2)cc(OC)c1OC` [GW869516X], on FLT3 (FLT3), the “Kinobeads Data” value is recorded as “no target”.

With `C[C@]12O[C@H](C[C@]1(O)CO)n1c3ccccc3c3c4c(c5c6ccccc6n2c5c31)CNC4=O` [Lestaurtinib], at CLK4 (read-out: Lestaurtinib Drugmatrix value, Gene Name CLK4), the potency estimated from few doses is 50.2 nM.

With `NCc1ccc(-c2nc(-c3ccncc3)c(-c3ccc(Cl)c(O)c3)[nH]2)cc1` [SB-476429-A], the concentration for half-maximal inhibition (IC50) at PKN3 (setting [1]) was 85 nM; on PKN3 (setting [2]) it was 243 nM; on PKN3 (setting [3]) it was 589 nM; at PKN3 (setting [4]), 211 nM; at PKN3 (setting [5]), 86.7 nM; at PKN3 (setting [6]), 85.4 nM.
